The results in this text go back to patent US11673883B2, “Heterocyclic compounds as immunomodulators” (Incyte Corporation, priority 2016, dated 2023).

Sequence of PD-1/PD-L1 protein/protein interaction (Q9NZQ7 19-238): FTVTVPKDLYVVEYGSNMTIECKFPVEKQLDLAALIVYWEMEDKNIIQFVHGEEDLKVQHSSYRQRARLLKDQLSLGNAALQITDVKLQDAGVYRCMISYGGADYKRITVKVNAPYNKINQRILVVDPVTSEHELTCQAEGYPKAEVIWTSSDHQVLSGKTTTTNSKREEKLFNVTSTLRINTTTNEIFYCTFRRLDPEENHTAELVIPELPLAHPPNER

This experiment has as its target PD-1/PD-L1 protein/protein interaction (Homo sapiens (Human), UniProt Q9NZQ7). As to the kind of experiment: PD-1/PD-L1 Homogeneous Time-Resolved Fluorescence (HTRF) Binding Assay. The following applies: recombinant human PD-L1 (19-238) His-tag, human PD-1 (25-167) Fc tag; 25° C., PBS pH 7.4. Here is the method:
Example A. PD-1/PD-L1 Homogeneous Time-Resolved Fluorescence (HTRF) Binding Assay
The assays were conducted in a standard black 384-well polystyrene plate with a final volume of 20 μL. Inhibitors were first serially diluted in DMSO and then added to the plate wells before the addition of other reaction components. The final concentration of DMSO in the assay was 1%. The assays were carried out at 25° C. in the PBS buffer (pH 7.4) with 0.05% Tween-20 and 0.1% BSA. Recombinant human PD-L1 protein (19-238) with a His-tag at the C-terminus was purchased from AcroBiosystems (PD1-H5229). Recombinant human PD-1 protein (25-167) with Fc tag at the C-terminus was also purchased from AcroBiosystems (PD1-H5257). PD-L1 and PD-1 proteins were diluted in the assay buffer and […] was added to the plate well. Plates were centrifuged and proteins were preincubated with inhibitors for 40 minutes. The incubation was followed by the addition of 10 μL of HTRF detection buffer supplemented with Europium cryptate-labeled anti-human IgG (PerkinElmer-AD0212) specific for Fc and anti-His antibody conjugated to SureLight®-Allophycocyanin (APC, PerkinElmer-AD0059H). After centrifugation, the plate was incubated at 25° C. for 60 min. before reading on a PHERAstar FS plate reader (665 nm/620 nm ratio). Final concentrations in the assay were […], 10 nM PD-L1, 1 nM europium anti-human IgG and 20 nM anti-His-Allophycocyanin. IC50 determination was performed by fitting the curve of percent control activity versus the log of the inhibitor concentration using the GraphPad Prism 5.0 software.
On the technique in general: In TR-FRET formats the signal depends on donor and acceptor labels being close together.
In the case of `Cc1c(-c2ccccc2)cccc1N1CCC(N[C@H]2C[C@@H](O)C2)CC1` [Example 29, cis-3-(1-(2-methylbiphenyl-3-yl)piperidin-4-ylamino)cyclobutanol], the IC50 is no more than 100 nM.
`N#Cc1c(-c2ccc3c(c2)OCCO3)cccc1N1CCC(NC2CCCOC2)CC1` (stereo not drawn) [Example 16, 2-(2,3-dihydrobenzo[b][1,4]dioxin-6-yl)-6-(4-(tetrahydro-2H-pyran-3-ylamino)piperidin-1-yl)benzonitrile]: the IC50 is no more than 100 nM.
On to `N#Cc1c(-c2ccc3c(c2)OCCO3)cccc1N1CCC(N2CCC(CO)C2)CC1` (stereo not drawn) [Example 25, 2-(2,3-dihydrobenzo[b][1,4]dioxin-6-yl)-6-(4-(3-(hydroxymethyl)pyrrolidin-1-yl)piperidin-1-yl)benzonitrile], for which the IC50 is no more than 100 nM.
Under `Cc1c(-c2ccccc2)cccc1N1CCC(NCC(=O)N2CCN(C(C)C)CC2)CC1` [Example 27, 1-(4-isopropylpiperazin-1-yl)-2-(1-(2-methylbiphenyl-3-yl)piperidin-4-ylamino)ethanone] stands 100 to 500 nM.
In the case of `N#Cc1c(-c2ccc3c(c2)OCCO3)cccc1N1CCC(N[C@H]2C[C@H](O)C2)CC1` [Example 18, 2-(2,3-dihydrobenzo[b][1,4]dioxin-6-yl)-6-(4-(trans-3-hydroxycyclobutylamino)piperidin-1-yl)benzonitrile] it was no more than 100 nM.
Take `N#Cc1c(-c2ccc3c(c2)OCCO3)cccc1N1CCC(NC2CCCCC2)CC1` [Example 20, 2-(4-(cyclohexylamino)piperidin-1-yl)-6-(2,3-dihydrobenzo[b][1,4]dioxin-6-yl)benzonitrile]: the IC50 is no more than 100 nM.
With `Cc1c(-c2ccccc2)cccc1N1CCC(NC2CCC(C#N)CC2)CC1` (single isomer, unassigned) [40 (peak 1), 4-(1-(2-methylbiphenyl-3-yl)piperidin-4-ylamino)cyclohexane-carbonitrile], the IC50 is no more than 100 nM.
For `CN(C)C1CCN(c2cccc(-c3ccc4c(c3)OCCO4)c2C#N)CC1` [Example 3, 2-(2,3-dihydrobenzo[b][1,4]dioxin-6-yl)-6-(4-(dimethylamino)piperidin-1-yl)benzonitrile], the IC50 was in the range of 100 to 500 nM.
Under `N#Cc1c(-c2ccc3c(c2)OCCO3)cccc1N1CCC(N[C@H]2C[C@@H](O)C2)CC1` [Example 1, 2-(2,3-dihydro-1,4-benzodioxin-6-yl)-6-{4-[(cis-3-hydroxycyclobutyl)amino]piperidin-1-yl}benzonitrile] stands no more than 100 nM.
Consider `C[C@@H]1CN(C2CCN(c3cccc(-c4ccc5c(c4)OCCO5)c3C#N)CC2)C[C@H]1CO` (relative stereo) [Example 9, 2-(2,3-dihydrobenzo[b][1,4]dioxin-6-yl)-6-(4-(trans-3-(hydroxymethyl)-4-methylpyrrolidin-1-yl)piperidin-1-yl)benzonitrile], for which the IC50 was no more than 100 nM.
As to `Cc1c(-c2ccccc2)cccc1N1CCC(NC2CCc3c(c(C(=O)O)nn3C)C2)CC1` (racemic) [Example 38, 1-methyl-5-(1-(2-methylbiphenyl-3-yl)piperidin-4-ylamino)-4,5,6,7-tetrahydro-1H-indazole-3-carboxylic acid], the IC50 was no more than 100 nM.
For the compound `CC(C)(CO)CNC1CCN(c2cccc(-c3ccc4c(c3)OCCO4)c2C#N)CC1` [Example 6, 2-(2,3-dihydrobenzo[b][1,4]dioxin-6-yl)-6-(4-(3-hydroxy-2,2-dimethylpropylamino)piperidin-1-yl)benzonitrile], the IC50 is no more than 100 nM.
Turning to `CC(O)C1CCN(C2CCN(c3cccc(-c4ccc5c(c4)OCCO5)c3C#N)CC2)C1` (stereo not drawn) [Example 21, 2-(2,3-dihydrobenzo[b][1,4]dioxin-6-yl)-6-(4-(3-(1-hydroxyethyl)pyrrolidin-1-yl)piperidin-1-yl)benzonitrile], the IC50 was no more than 100 nM.
As to `N#Cc1c(-c2ccc3c(c2)OCCO3)cccc1N1CCC(NC[C@@H]2CCCC[C@@H]2O)CC1` (relative stereo) [Example 19, 2-(2,3-dihydro-1,4-benzodioxin-6-yl)-6-[4-({[cis-2-hydroxycyclohexyl]methyl}amino)piperidin-1-yl]benzonitrile], the IC50 was no more than 100 nM.
Turning to `N#Cc1c(-c2ccc3c(c2)OCCO3)cccc1N1CCC(N2CCC(CCO)C2)CC1` (stereo not drawn) [Example 15, 2-(2,3-dihydrobenzo[b][1,4]dioxin-6-yl)-6-(4-(3-(2-hydroxyethyl)pyrrolidin-1-yl)piperidin-1-yl)benzonitrile], the IC50 is no more than 100 nM.
On to `N#Cc1c(-c2ccc3c(c2)OCCO3)cccc1N1CCC(NC2CCCC2CO)CC1` (stereo not drawn) [Example 17, 2-(2,3-dihydrobenzo[b][1,4]dioxin-6-yl)-6-(4-(cis-2-(hydroxymethyl)cyclopentylamino)piperidin-l-yl)benzonitrile], for which the IC50 was no more than 100 nM.
Consider `Cc1c(-c2ccccc2)cccc1N1CCC(N[C@H]2C[C@H](O)C2)CC1` [Example 28, trans-3-(1-(2-methylbiphenyl-3-yl)piperidin-4-ylamino)cyclobutanol], for which the IC50 is no more than 100 nM.
For the compound `N#Cc1c(-c2ccc3c(c2)OCCO3)cccc1N1CCC(N[C@H]2C[C@@H](CO)C2)CC1` [Example 8, 2-(2,3-dihydrobenzo[b][1,4]dioxin-6-yl)-6-(4-(cis-3-(hydroxymethyl)cyclobutyl-amino)piperidin-l-yl)benzonitrile], the IC50 was no more than 100 nM.
Under `COc1cccc(-c2cccc(N3CCC(N4CCCC4)CC3)c2C#N)c1` [Example 48, 3′-methoxy-3-(4-(pyrrolidin-1-yl)piperidin-1-yl)biphenyl-2-carbonitrile] stands 100 to 500 nM; under `Cc1c(-c2ccccc2)cccc1N1CCC(N[C@H]2CCC[C@H]2CO)CC1` (relative stereo) [Example 34, (cis-2-(1-(2-methylbiphenyl-3-yl)piperidin-4-ylamino)cyclopentyl) methanol], no more than 100 nM; under `Cc1c(-c2ccccc2)cccc1N1CCC(NC2CCCC(C(=O)O)C2)CC1` (single isomer, unassigned) [46 (peak 2), 3-(1-(2-methylbiphenyl-3-yl)piperidin-4-ylamino)cyclohexane carboxylic acid], no more than 100 nM.

As usually defined, the IC50 is the concentration that gives 50% inhibition.
